Measured values taken from ChEMBL document CHEMBL1201862, “PubChem BioAssay data set” (2004).
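Briefly, cells in 96-well plates were exposed to five compound concentrations for 48 h, and endpoints were estimated by linear interpolation. Abbreviation: GI50, concentration required for 50% inhibition of growth.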 Calls of active or inactive are those of the source. Rule as the data show it: active = GI50 up to about 1.1 µM and inactive = higher.

What was measured:
Experiment in all cases: NCI-60 cell line screen, 48 h
M14 = test system: M14
K562 = test system: K562
NCI-H522 = test system: NCI-H522
MOLT-4 = test system: MOLT-4
786-0 = test system: 786-0
SW-620 = test system: SW-620
TK-10 = test system: TK-10
RXF 393 = test system: RXF 393
SK-OV-3 = test system: SK-OV-3
COLO 205 = test system: COLO 205
Hs-578T = test system: Hs-578T
LOX IMVI = test system: LOX IMVI
HCT-116 = test system: HCT-116
A549 = test system: A549
UACC-62 = test system: UACC-62
SK-MEL-2 = test system: SK-MEL-2
SF-268 = test system: SF-268
U-251 = test system: U-251
NCI/ADR-RES = test system: NCI/ADR-RES
RPMI-8226 = test system: RPMI-8226

Measured: GI50

O=c1c2ccccc2nc(-c2cc3c(cc2Cl)Sc2nccn2S3(=O)=O)n1-c1ccccc1
inactive: M14 > 100 µM | K562 18.8 µM | NCI-H522 > 100 µM | MOLT-4 > 100 µM | 786-0 30.1 µM | SW-620 13.5 µM | TK-10 21.5 µM | RXF 393 18.8 µM | SK-OV-3 > 100 µM | COLO 205 > 100 µM | Hs-578T 12.2 µM | LOX IMVI 88.7 µM | HCT-116 14.2 µM | A549 > 100 µM | UACC-62 26.4 µM | SK-MEL-2 18.5 µM | SF-268 7.1 µM | U-251 16.8 µM | NCI/ADR-RES 19.1 µM | RPMI-8226 12.9 µM

CC(C)(C)c1ccc(C(C)(C)C)c(N2C(=O)[C@@H]3[C@@H]4C=C[C@@H](C4)[C@]3(C)C2=O)c1
inactive: M14 19.5 µM | K562 26.8 µM | NCI-H522 16.1 µM | MOLT-4 14.9 µM | 786-0 17.4 µM | SW-620 21.1 µM | TK-10 35 µM | RXF 393 15.5 µM | SK-OV-3 > 100 µM | COLO 205 42.2 µM | Hs-578T 24.2 µM | LOX IMVI 13.9 µM | HCT-116 15.5 µM | A549 41 µM | UACC-62 13.1 µM | SK-MEL-2 20.6 µM | SF-268 27.9 µM | U-251 18.7 µM | NCI/ADR-RES 29.6 µM | RPMI-8226 14.7 µM

COc1cc(C)cc(C(=O)OCc2ccccc2)c1C1=C(Cl)C(=O)C(Cl)=CC1=O
inactive: M14 > 10 µM | K562 2.27 µM | NCI-H522 2.05 µM | MOLT-4 2.42 µM | 786-0 > 5.71 µM | SW-620 > 7.59 µM | TK-10 > 10 µM | RXF 393 > 10 µM | SK-OV-3 > 10 µM | COLO 205 > 6.14 µM | Hs-578T > 10 µM | LOX IMVI > 10 µM | HCT-116 > 10 µM | A549 > 10 µM | UACC-62 > 10 µM | SK-MEL-2 > 10 µM | SF-268 > 10 µM | U-251 > 10 µM | NCI/ADR-RES > 10 µM | RPMI-8226 > 5.79 µM

COC(=O)C(Cc1c[nH]c2ccccc12)NP(=O)(O)OCC1OC(n2cc(F)c(=O)[nH]c2=O)CC1O (stereo not given)
inactive: M14 30.8 µM | K562 > 100 µM | NCI-H522 > 100 µM | MOLT-4 10.1 µM | 786-0 28.2 µM | SW-620 > 100 µM | TK-10 > 100 µM | RXF 393 > 100 µM | SK-OV-3 > 92.5 µM | COLO 205 > 100 µM | Hs-578T > 100 µM | LOX IMVI 18.2 µM | HCT-116 14.5 µM | A549 10.4 µM | UACC-62 > 26.5 µM | SK-MEL-2 > 100 µM | SF-268 4.94 µM | U-251 > 100 µM | NCI/ADR-RES 37.2 µM | RPMI-8226 31.3 µM

COc1cc2c(NCCCCCCO[N+](=O)[O-])ncnc2c(OC)c1OC
inactive: M14 16.9 µM | K562 29.2 µM | NCI-H522 19.7 µM | MOLT-4 16.5 µM | 786-0 26 µM | SW-620 26.2 µM | TK-10 20.9 µM | RXF 393 17.9 µM | SK-OV-3 49.3 µM | COLO 205 21.4 µM | Hs-578T 29.2 µM | LOX IMVI 20.2 µM | HCT-116 20.6 µM | A549 28.7 µM | UACC-62 18.2 µM | SK-MEL-2 21.6 µM | SF-268 25.5 µM | U-251 35.2 µM | NCI/ADR-RES 21.7 µM | RPMI-8226 10.2 µM

O=C(OCc1ccccc1)N1CCCc2c(n(S(=O)(=O)c3ccccc3)c3ccccc23)C1
inactive: M14 > 100 µM | K562 > 100 µM | NCI-H522 29.1 µM | MOLT-4 > 100 µM | 786-0 > 100 µM | SW-620 > 100 µM | TK-10 > 100 µM | RXF 393 53.8 µM | SK-OV-3 > 100 µM | COLO 205 > 100 µM | Hs-578T 78.7 µM | LOX IMVI > 100 µM | HCT-116 > 100 µM | A549 > 100 µM | UACC-62 > 100 µM | SK-MEL-2 > 100 µM | SF-268 > 100 µM | U-251 > 100 µM | NCI/ADR-RES > 100 µM | RPMI-8226 > 100 µM
